Reference: patent US7262220B2, “Urea- and urethane-substituted acylureas, process for their preparation and their use” (Sanofi-Aventis Deutschland GmbH, priority 2002, dated 2007)
Like-named read-outs stand apart in the source and are kept apart here.

Biological target: T1, human glycogen phosphorylase a (Homo sapiens, UniProt P06737)
T1 sequence (P06737 1-847): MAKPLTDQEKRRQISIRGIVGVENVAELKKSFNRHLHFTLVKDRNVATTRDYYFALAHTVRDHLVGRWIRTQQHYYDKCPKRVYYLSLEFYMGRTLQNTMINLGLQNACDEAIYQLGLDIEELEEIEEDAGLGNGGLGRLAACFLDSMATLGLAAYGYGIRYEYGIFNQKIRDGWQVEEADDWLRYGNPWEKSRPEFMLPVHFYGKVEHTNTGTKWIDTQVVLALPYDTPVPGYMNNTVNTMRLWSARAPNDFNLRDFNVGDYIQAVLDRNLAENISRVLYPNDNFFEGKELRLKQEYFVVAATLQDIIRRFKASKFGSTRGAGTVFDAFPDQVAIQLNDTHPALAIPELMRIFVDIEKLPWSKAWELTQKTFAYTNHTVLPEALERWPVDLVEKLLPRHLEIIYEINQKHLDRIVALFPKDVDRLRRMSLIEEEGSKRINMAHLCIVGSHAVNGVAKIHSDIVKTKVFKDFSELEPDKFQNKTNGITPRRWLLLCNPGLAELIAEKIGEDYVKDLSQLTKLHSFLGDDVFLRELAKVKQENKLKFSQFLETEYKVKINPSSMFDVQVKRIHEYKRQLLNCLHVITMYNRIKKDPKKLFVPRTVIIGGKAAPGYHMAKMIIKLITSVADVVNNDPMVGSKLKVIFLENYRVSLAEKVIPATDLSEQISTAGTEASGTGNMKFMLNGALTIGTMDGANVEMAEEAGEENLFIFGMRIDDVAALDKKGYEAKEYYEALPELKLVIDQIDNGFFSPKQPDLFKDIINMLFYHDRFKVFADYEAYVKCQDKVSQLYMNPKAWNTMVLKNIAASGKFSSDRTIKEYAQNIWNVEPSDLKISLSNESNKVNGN
Experiment: Glycogen phosphorylase a activity assay
Assay type: biochemical
Details: read-out: % inhibition at 10 μM
Procedure: Glycogen Phosphorylase a Activity Assay
The effect of compounds on the activity of the active form of glycogen phosphorylase (GPa) was measured in the reverse direction by following the synthesis of glycogen from glucose 1-phosphate by determining the liberation of inorganic phosphate. All the reactions were carried out as duplicate determinations in microtiter plates with 96 wells (Half Area Plates, Costar No 3696), measuring the change in absorption owing to the formation of the reaction product at the wavelength specified hereinafter in a Multiskan Ascent Elisa Reader (Lab Systems, Finland). In order to measure the GPa enzymic activity in the reverse direction, the general method of Engers et al. (Engers H D, Shechosky S, Madsen N B, Can J Biochem 1970 July; 48(7):746-754) was used to measure the conversion of glucose 1-phosphate into glycogen and inorganic phosphate, with the following modifications: human glycogen phosphorylase a (for example with 0.76 mg of protein/ml (Aventis Pharma Deutschland GmbH), dissolved in buffer solution E (25 mM β-glycerophosphate, pH 7.0, 1 mM EDTA and 1 mM dithiothreitol) was diluted with buffer T (50 mM hepes, pH 7.0, 100 mM KCl, 2.5 mM EDTA, 2.5 mM MgCl26H2O) and addition of 5 mg/ml glycogen to a concentration of 10 μg of protein/ml. […] The baseline glycogen phosphorylase a activity in the absence of test substance was determined by adding 10 μl of buffer solution T (0.1% DMSO). The mixture was incubated at room temperature for 40 minutes, and the liberated […] was measured by the general method of Drueckes et al. (Drueckes P, Schinzel R, Palm D, Anal Biochem 1995 Sep. 1; 230(1):173-177) with the following modifications: 50 μl of a stop solution of 7.3 mM ammonium molybdate, 10.9 mM zinc acetate, 3.6% ascorbic acid, 0.9% SDS are added to 50 μl of the enzyme mixture. After incubation at 45° C. for 60 minutes, the absorption at 820 nm was measured. […]

[1] = 10 μM test substance, GPa activity measured in the reverse direction (liberation of inorganic phosphate), duplicate determinations

inhibition at 10 µM [1]	Compound	inhibition at 10 µM
53%	COC(=O)Nc1ccc(C(=O)O)cc1NC(=O)NC(=O)c1ccc(F)cc1Cl [Example 3, 3-[3-(2-Chloro-4-fluorobenzoyl)ureido]-4-methoxycarbonylaminobenzoic acid]	
	COC(=O)/C=C/c1ccc(NC(=O)Oc2ccc(Cl)cc2)cc1NC(=O)NC(=O)c1cc(F)c(F)cc1Cl [Example 110, Methyl (E)-3-[2-[3-(2-chloro-4,5-difluorobenzoyl)ureido]-4-(4-chloro-phenoxycarbonylamino)phenyl]acrylate]	73%
97%	COc1cc2c(=O)[nH]c(=O)[nH]c2cc1NC(=O)NC(=O)c1cc(F)c(F)cc1Cl [Example 132, 1-(2-Chloro-4,5-difluorobenzoyl)-3-(6-methoxy-2,4-dioxo-1,2,3,4-tetrahydro-quinazolin-7-yl)urea]	
